This test addresses T1, Seed linoleate 13S-lipoxygenase-1 (Glycine max, UniProt P08170).
T1 sequence (P08170 whole entry): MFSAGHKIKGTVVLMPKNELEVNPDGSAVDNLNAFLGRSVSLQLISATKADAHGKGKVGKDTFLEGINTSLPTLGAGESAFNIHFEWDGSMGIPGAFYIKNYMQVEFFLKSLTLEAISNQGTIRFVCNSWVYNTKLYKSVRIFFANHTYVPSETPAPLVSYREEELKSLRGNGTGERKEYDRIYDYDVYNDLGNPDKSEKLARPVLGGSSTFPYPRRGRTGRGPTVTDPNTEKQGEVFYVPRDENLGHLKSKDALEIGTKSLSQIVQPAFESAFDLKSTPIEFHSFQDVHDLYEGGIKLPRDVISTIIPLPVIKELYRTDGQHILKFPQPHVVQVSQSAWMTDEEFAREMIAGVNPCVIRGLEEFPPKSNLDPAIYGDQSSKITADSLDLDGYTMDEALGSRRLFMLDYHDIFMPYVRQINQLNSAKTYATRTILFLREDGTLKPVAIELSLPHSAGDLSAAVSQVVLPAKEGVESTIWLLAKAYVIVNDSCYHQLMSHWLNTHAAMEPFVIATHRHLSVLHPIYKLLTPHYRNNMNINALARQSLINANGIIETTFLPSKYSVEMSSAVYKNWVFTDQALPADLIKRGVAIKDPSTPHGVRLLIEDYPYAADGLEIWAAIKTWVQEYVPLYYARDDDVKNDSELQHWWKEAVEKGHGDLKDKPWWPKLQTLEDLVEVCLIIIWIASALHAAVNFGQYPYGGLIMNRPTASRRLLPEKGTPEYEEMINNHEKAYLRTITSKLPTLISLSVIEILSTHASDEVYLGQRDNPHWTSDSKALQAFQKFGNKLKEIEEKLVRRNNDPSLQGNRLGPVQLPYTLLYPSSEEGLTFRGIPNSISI
The test is described as follows: Lipoxygenase Inhibition Assay. The following applies: pH 8; 25 °C. How it is done: A mixture of test compound (10 μL; 1 mM) in MeOH, type-1B lipoxygenase (EC 1.13.11.12; from soyabean) (20 μL; 70 units) in 0.1 M aqueous phosphate buffer (pH 8.0) in a total volume of 160 μL was incubated for 10 min at 25°C. Then the reaction was initiated by the addition of a solution of linoleic acid as substrate (10 μL; 20 μM), resulting in the formation of (9Z,11E,13S)-13-hydroperoxyoctadeca-9,11-dienoate. The change in UV absorbance at 234 nm was followed over a period of 6 min. All reactions were performed in triplicate, and analyzed with a 96-well plate reader (SpectraMax Plus 384; Molecular Devices).

Compound `COc1ccc(-c2coc3cc(O)cc(O)c3c2=O)cc1` [5,7-dihydroxy-3-(4-methoxyphenyl)-4H-chromen-4-one] displayed an IC50 of 100 µM.
In the case of `COc1cc(-c2coc3cc(O)c(O)cc3c2=O)ccc1O` [Conferin (1)] it was 55.2 µM.

The values above are taken from BindingDB's records for doi:10.1080/14756360903179484 (University of Karachi, 2010).
